# System: DGAT
# Assay: DGAT Phospholipid FlashPlate Assay
# Type: biochemical
# Conditions: DGAT pellet, DAG-coated PL-FlashPlate, 14C-Pal-CoA, 37° C. for 1 hour; read-out: Activity in DGAT Phospholipid FlashPlate Assay (A = IC50 < 0.10 μM, B = IC50 ≧ 0.10 μM)
# Protocol: Materials for the assay were: PL-FlashPlate: Phospholipid FlashPlates from PerkinElmer, catalog number SMP108; DAG (1,2-Dioleoyl-sn-glycerol) 10 mM suspended in water containing 0.1% Triton X-100; ^14C-Pal-CoA (palmitoyl coenzyme A, [palmitoyl-1-^14C]) from PerkinElmer, catalog number NEC-555 with a specific activity of 55 mCi/mmol; and DGAT pellet, with a protein concentration of 9.85 mg/ml.
# Aqueous buffers were prepared or purchased as follows: The coating buffer (CB) was purchased from PerkinElmer, catalog number SMP900A; the reaction buffer (RB) was 50 mM Tris-HCl, pH 7.5, 100 mM NaCl, 0.01 % BSA in water; the washing buffer (WB) is 50 mM Tris-HCl, pH 7.5, 100 mM NaCl, 0.05 % deoxycholic acid sodium salt in water; the dilution buffer (DB) was 50 mM Tris-HCl, pH 7.5, 100 mM NaCl, 1 mM EDTA, 0.2% Triton X-100 in water.
# 1,2-Dioleoyl-sn-glycerol (DAG, 10 mmoles) was diluted to 500 μM with coating buffer (CB). The diluted DAG solution was then added to 384-well PL-FlashPlates at 60 μl per well, and incubated at room temperature for 2 days. The coated plates were then washed twice with washing buffer (WB) before use. Test compounds were serial diluted to 2000, 666.7, 222.2, 74.1, 24.7, 8.2, 2.7 and 0.9 μM in 100% DMSO. Diluted compound were further diluted 10 fold with reaction buffer (RB). ^14C-Pal-CoA was diluted to 8.3 μM with RB. The DGAT pellet was diluted to 0.13 mg protein/ml with dilution buffer (DB) immediately before it was added to the PL-FlashPlates to start the reaction. 20 μl of the RB-diluted compounds (or 10% DMSO in RB for Total and Blank), 15 μl of RB diluted 14C-Pal-CoA and 15 μl of DB diluted DGAT pellet (DB without DGAT for Blanks) were transferred to each well of the PL-FlashPlates. The reaction mixtures were incubated at 37° C. for 1 hour. The reactions were stopped by washing 3 times with WB. Plates were sealed with Top-seal and read on a Topcount instrument.
# Calculation of IC50: The IC50 values for each compound were generated using an Excel template. The Topcount rpm readings of Total and Blank were used as 0% and 100% inhibition. The percent inhibition values of reactions in the presence of compounds were calculated, and plotted against compound concentrations. All data were fitted into a Dose Response One Site model (4 parameter logistic model) as the following:
# (A+((B−A)/(1+((x/C)̂D)))),
# with A and B as the bottom and top of the curve ([…]), respectively, and C as IC50 and D as Hill Coefficient of the compound.
row,Structure (SMILES),IC50 [µM]
1,"COc1ccc(Cl)cc1NC(=O)Nc1ccc2c(c1)c(=O)[nH]n2Cc1ccccc1 [Example 1, 1-(1-Benzyl-3-oxo-2,3-dihydro-1H-indazol-5-yl)-3-(5-chloro-2-methoxy-phenyl)-urea]",≥ 0.1
2,"CCOc1ccccc1NC(=O)Nc1ccc2c(c1)c(=O)[nH]n2Cc1ccccc1 [Example 2, 1-(1-Benzyl-3-oxo-2,3-dihydro-1H-indazol-5-yl)-3-(2-ethoxy-phenyl)-urea]",≥ 0.1
3,"COc1ccccc1NC(=O)Nc1ccc2c(c1)c(=O)[nH]n2Cc1ccccc1 [Example 3, 1-(1-Benzyl-3-oxo-2,3-dihydro-1H-indazol-5-yl)-3-(2-methoxy-phenyl)-urea]",≥ 0.1
4,"CCCn1[nH]c(=O)c2cc(NC(=O)Nc3ccccc3OC(F)(F)F)ccc21 [Example 4, 1-(3-Oxo-1-propyl-2,3-dihydro-1H-indazol-5-yl)-3-(2-trifluoromethoxy-phenyl)-urea]",≥ 0.1
5,"CCCCc1ccc(NC(=O)Nc2ccc3c(c2)c(=O)[nH]n3CCC)cc1 [Example 5, 1-(4-Butyl-phenyl)-3-(3-oxo-1-propyl-2,3-dihydro-1H-indazol-5-yl)-urea]",≥ 0.1
6,"CCCn1[nH]c(=O)c2cc(NC(=O)Nc3cc(C)ccc3OC)ccc21 [Example 6, 1-(2-Methoxy-5-methyl-phenyl)-3-(3-oxo-1-propyl-2,3-dihydro-1H-indazol-5-yl)-urea]",≥ 0.1
7,"CCCn1[nH]c(=O)c2cc(NC(=O)Nc3cc(Cl)ccc3OC)ccc21 [Example 7, 1-(5-Chloro-2-methoxy-phenyl)-3-(3-oxo-1-propyl-2,3-dihydro-1H-indazol-5-yl)-urea]",< 0.1
8,"CCCn1[nH]c(=O)c2cc(NC(=O)Nc3ccccc3C(C)C)ccc21 [Example 8, 1-(2-Isopropyl-phenyl)-3-(3-oxo-1-propyl-2,3-dihydro-1H-indazol-5-yl)-urea]",≥ 0.1
9,"CCCn1[nH]c(=O)c2cc(NC(=O)Nc3ccc(Cl)c(Cl)c3)ccc21 [Example 9, 1-(3,4-Dichloro-phenyl)-3-(3-oxo-1-propyl-2,3-dihydro-1H-indazol-5-yl)-urea]",< 0.1
10,"CCCn1[nH]c(=O)c2cc(NC(=O)Nc3ccccc3CC)ccc21 [Example 10, 1-(2-Ethyl-phenyl)-3-(3-oxo-1-propyl-2,3-dihydro-1H-inidazol-5-yl)-urea]",< 0.1
11,"CCCn1[nH]c(=O)c2cc(NC(=O)Nc3cc(Cl)ccc3Cl)ccc21 [Example 11, 1-(2,5-Dichloro-phenyl)-3-(3-oxo-1-propyl-2,3-dihydro-1H-indazol-5-yl)-urea]",≥ 0.1
12,"CCCn1[nH]c(=O)c2cc(NC(=O)Nc3ccc(Cl)cc3Cl)ccc21 [Example 12, 1-(2,4-Dichloro-phenyl)-3-(3-oxo-1-propyl-2,3-dihydro-1H-indazol-5-yl)-urea]",≥ 0.1
13,"CCCn1[nH]c(=O)c2cc(NC(=O)Nc3ccc(C(F)(F)F)cc3)ccc21 [Example 13, 1-(3-Oxo-1-propyl-2,3-dihydro-1H-indazol-5-yl)-3-(4-trifluoromethyl-phenyl)-urea]",≥ 0.1
14,"CCCn1[nH]c(=O)c2cc(NC(=O)Nc3ccccc3)ccc21 [Example 14, 1-(3-Oxo-1-propyl-2,3-dihydro-1H-indazol-5-yl)-3-phenyl-urea]",≥ 0.1
15,"CCCn1[nH]c(=O)c2cc(NC(=O)Nc3cccc(Cl)c3)ccc21 [Example 15, 1-(3-Chloro-phenyl)-3-(3-oxo-1-propyl-2,3-dihydro-1H-indazol-5-yl)-urea]",≥ 0.1
16,"CCCn1[nH]c(=O)c2cc(NC(=O)Nc3cccc(C)c3)ccc21 [Example 16, 1-(3-Oxo-1-propyl-2,3-dihydro-1H-indazol-5-yl)-3-m-tolyl-urea]",≥ 0.1
17,"CCCn1[nH]c(=O)c2cc(NC(=O)Nc3cccc(F)c3)ccc21 [Example 17, 1-(3-Fluoro-phenyl)-3-(3-oxo-1-propyl-2,3-dihydro-1H-indazol-5-yl)-urea]",≥ 0.1

row,Structure (SMILES),IC50 [µM]
1,"CCCn1[nH]c(=O)c2cc(NC(=O)Nc3ccc(F)cc3F)ccc21 [Example 18, 1-(2,4-Difluoro-phenyl)-3-(3-oxo-1-propyl-2,3-dihydro-1H-indazol-5-yl)-urea]",≥ 0.1
2,"CCCn1[nH]c(=O)c2cc(NC(=O)Nc3cccc(Br)c3)ccc21 [Example 19, 1-(3-Bromo-phenyl)-3-(3-oxo-1-propyl-2,3-dihydro-1H-indazol-5-yl)-urea]",≥ 0.1
3,"CCCn1[nH]c(=O)c2cc(NC(=O)Nc3ccccc3OC)ccc21 [Example 20, 1-(2-Methoxy-phenyl)-3-(3-oxo-1-propyl-2,3-dihydro-1H-indazol-5-yl)-urea]",≥ 0.1
4,"CCCn1[nH]c(=O)c2cc(NC(=O)Nc3ccccc3Cl)ccc21 [Example 21, 1-(2-Chloro-phenyl)-3-(3-oxo-1-propyl-2,3-dihydro-1H-indazol-5-yl)-urea]",≥ 0.1
5,"CCCn1[nH]c(=O)c2cc(NC(=O)Nc3ccccc3F)ccc21 [Example 22, 1-(2-Fluoro-phenyl)-3-(3-oxo-1-propyl-2,3-dihydro-1H-indazol-5-yl)-urea]",≥ 0.1
6,"COc1c(Cl)cccc1NC(=O)Nc1ccc2c(c1)c(=O)[nH]n2Cc1ccccc1 [Example 23, 1-(1-Benzyl-3-oxo-2,3-dihydro-1H-indazol-5-yl)-3-(3-chloro-2-methoxy-phenyl)-urea]",≥ 0.1
7,"CCOC(=O)Cn1[nH]c(=O)c2cc(NC(=O)Nc3ccccc3CC)ccc21 [Example 24, {5-[3-(2-ethyl-phenyl)-ureido]-3-oxo-2,3-dihydro-indazol-1-yl}-acetic acid ethyl ester]",≥ 0.1
8,"CCc1ccccc1NC(=O)Nc1ccc2c(c1)c(=O)[nH]n2CCOCCOC [Example 25, 1-(2-ethyl-phenyl)-3-{1-[2-(2-methoxy-ethoxy)-ethyl]-3-oxo-2,3-dihydro-1H-indazol-5-yl}-urea]",≥ 0.1
9,"CCc1ccccc1NC(=O)Nc1ccc2c(c1)c(=O)[nH]n2CCOC [Example 26, 1-(2-ethyl-phenyl)-3-[1-(2-methoxy-ethyl)-3-oxo-2,3-dihydro-1H-indazol-5-yl]-urea]",≥ 0.1
10,"CCCn1[nH]c(=O)c2cc(NC(=O)Nc3cccc4cccnc34)ccc21 [Example 27, 1-(3-Oxo-1-propyl-2,3-dihydro-1H-indazol-5-yl)-3-quinolin-8-yl-urea]",< 0.1
11,"CCCn1[nH]c(=O)c2cc(NC(=O)Nc3ccccc3N3CCCCC3)ccc21 [Example 28, 1-(3-Oxo-1-propyl-2,3-dihydro-1H-indazol-5-yl)-3-(2-piperidin-1-yl-phenyl)-urea]",≥ 0.1
12,"CCCn1[nH]c(=O)c2cc(NC(=O)Nc3ccccc3C(C)CC)ccc21 (stereo not shown) [Example 29, 1-(2-sec-Butyl-phenyl)-3-(3-oxo-1-propyl-2,3-dihydro-1H-indazol-5-yl)-urea]",≥ 0.1
13,"O=C(Nc1ccc2c(c1)c(=O)[nH]n2Cc1ccccc1)Nc1ccccc1N1CCCCC1 [Example 30, 1-(1-Benzyl-3-oxo-2,3-dihydro-1H-indazol-5-yl)-3-(2-piperidin-1-yl-phenyl)-urea]",≥ 0.1
14,"C#Cc1cccc(NC(=O)Nc2ccc3c(c2)c(=O)[nH]n3CCC)c1 [Example 31, 1-(3-Ethynyl-phenyl)-3-(3-oxo-1-propyl-2,3-dihydro-1H-indazol-5-yl)-urea]",≥ 0.1
15,"CCCn1[nH]c(=O)c2cc(NC(=O)Nc3cccc(C(F)(F)F)c3)ccc21 [Example 32, 1-(3-Oxo-1-propyl-2,3-dihydro-1H-indazol-5-yl)-3-(3-trifluoromethyl-phenyl)-urea]",≥ 0.1
16,"CC(C)Oc1cccc(NC(=O)Nc2ccc3c(c2)c(=O)[nH]n3Cc2ccccc2)c1 [Example 33, 1-(1-Benzyl-3-oxo-2,3-dihydro-1H-indazol-5-yl)-3-(3-isopropoxy-phenyl)-urea]",≥ 0.1
17,"O=C(Nc1cccc(C(F)(F)F)c1)Nc1ccc2c(c1)c(=O)[nH]n2Cc1ccccc1 [Example 34, 1-(1-Benzyl-3-oxo-2,3-dihydro-1H-indazol-5-yl)-3-(3-trifluoromethyl-phenyl)-urea]",≥ 0.1

# Reference: US20090163546A1, “DIACYLGLYCEROL ACYLTRANSFERASE INHIBITORS” (priority 2007, published 2009)
